In paper PMC6387623 (Proteins, 2018):

Target: RGS4 (single-cysteine RGS4 C95) (Rattus norvegicus, UniProt P49799, C71A/C132A/C148A/C183A/C197A/C204A)
Assay: Flow cytometry protein interaction assay
Type: binding

RGS4 (single-cysteine RGS4 C95), sequence (P49799 52-205 C71A/C132A/C148A/C183A/C197A/C204A): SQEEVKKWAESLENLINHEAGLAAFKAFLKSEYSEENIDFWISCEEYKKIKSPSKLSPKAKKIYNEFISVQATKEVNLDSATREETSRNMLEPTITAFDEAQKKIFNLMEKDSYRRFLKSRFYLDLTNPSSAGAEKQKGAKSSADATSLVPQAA

`Cc1ccc(-n2sc(=O)n(Cc3ccc(F)cc3)c2=O)cc1` [compound 1, CCG-50014] was tested, and the IC50 was about 4.5 µM.
